According to PubChem BioAssay AID2060885 (Molecular Pharmacology Branch, DTP, NCI, 2025):

System: NCI-H23 complex spheroids with HUVEC/MSC, viability
Experiment: Anticancer human tumor NCI-H23 cell line growth inhibition [RAS];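 further: spheroids exposed to compound for 7 days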;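 on viability, T/C: 100% = DMSO vehicle control viability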
Conditions: for IC50: curve of first compound; for viability, T/C: stronger effect = lower value
Method in brief: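 Multi-cell-type spheroids: tumor cells plus HUVEC endothelial cells and mesenchymal stem cells. RAS-pathway inhibitors were combined with targeted agents, each dosed in half-log steps down from clinical Cmax, or from 10 microM when Cmax was unknown.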

[1] = second compound 0.000949 µM, first compound 0.0316 µM
[2] = second compound 0.000949 µM, first compound 0.1 µM
[3] = second compound 0.000949 µM, first compound 0.316 µM
[4] = second compound 0.000949 µM, first compound 1 µM
[5] = second compound 0.003 µM, first compound 0.0316 µM
[6] = second compound 0.003 µM, first compound 0.1 µM
[7] = second compound 0.003 µM, first compound 0.316 µM
[8] = second compound 0.003 µM, first compound 1 µM
[9] = second compound 0.00949 µM, first compound 0.0316 µM
[10] = second compound 0.00949 µM, first compound 0.1 µM
[11] = second compound 0.00949 µM, first compound 0.316 µM
[12] = second compound 0.00949 µM, first compound 1 µM
[13] = second compound 0.03 µM, first compound 0.0316 µM
[14] = second compound 0.03 µM, first compound 0.1 µM
[15] = second compound 0.03 µM, first compound 0.316 µM
[16] = second compound 0.03 µM, first compound 1 µM
[17] = second compound 0.0949 µM, first compound 0.0316 µM
[18] = second compound 0.0949 µM, first compound 0.1 µM
[19] = second compound 0.0949 µM, first compound 0.316 µM
[20] = second compound 0.0949 µM, first compound 1 µM
[21] = second compound 0.3 µM, first compound 0.0316 µM
[22] = second compound 0.3 µM, first compound 0.1 µM
[23] = second compound 0.3 µM, first compound 0.316 µM
[24] = second compound 0.3 µM, first compound 1 µM

CC1(O)CCCC1n1c(=O)c(C(F)F)cc2cnc(NC3CCN(S(C)(=O)=O)CC3)nc21 (centres undefined) + CCn1c(-c2cc(N3CCN(C)CC3)cnc2C(C)OC)c2c3cc(ccc31)-c1csc(n1)CC(NC(=O)C1CC1C)C(=O)N1CCCC(N1)C(=O)OCC(C)(C)C2
IC50 (second compound 0.000949 µM): < 31.6 nM | IC50 (second compound 0.003 µM): < 31.6 nM | IC50 (second compound 0.00949 µM): < 31.6 nM | IC50 (second compound 0.03 µM): < 31.6 nM | IC50 (second compound 0.0949 µM): < 31.6 nM | IC50 (second compound 0.3 µM): < 31.6 nM | viability, T/C [1]: 33.9% | viability, T/C [2]: 26.3% | viability, T/C [3]: 17.7% | viability, T/C [4]: 25.8% | viability, T/C (second compound 0.000949 µM, first compound 3.16 µM): 25.5% | viability, T/C (second compound 0.000949 µM, first compound 10 µM): 2.68% | viability, T/C [5]: 31.6% | viability, T/C [6]: 18.7% | viability, T/C [7]: 15.9% | viability, T/C [8]: 19.1% | viability, T/C (second compound 0.003 µM, first compound 3.16 µM): 24% | viability, T/C (second compound 0.003 µM, first compound 10 µM): 1.43% | viability, T/C [9]: 32% | viability, T/C [10]: 15.7% | viability, T/C [11]: 13.9% | viability, T/C [12]: 17.6% | viability, T/C (second compound 0.00949 µM, first compound 3.16 µM): 17.9% | viability, T/C (second compound 0.00949 µM, first compound 10 µM): 1.78% | viability, T/C [13]: 20.8% | viability, T/C [14]: 18% | viability, T/C [15]: 15% | viability, T/C [16]: 17.1% | viability, T/C (second compound 0.03 µM, first compound 3.16 µM): 14.5% | viability, T/C (second compound 0.03 µM, first compound 10 µM): 2.47% | viability, T/C [17]: 17.3% | viability, T/C [18]: 15.4% | viability, T/C [19]: 13.4% | viability, T/C [20]: 14.1% | viability, T/C (second compound 0.0949 µM, first compound 3.16 µM): 12.1% | viability, T/C (second compound 0.0949 µM, first compound 10 µM): 2.66% | viability, T/C [21]: 18.7% | viability, T/C [22]: 14.8% | viability, T/C [23]: 15.1% | viability, T/C [24]: 12.8% | viability, T/C (second compound 0.3 µM, first compound 3.16 µM): 11.8% | viability, T/C (second compound 0.3 µM, first compound 10 µM): 2.94%

CCN1CCN(Cc2ccc(Nc3ncc(F)c(-c4cc(F)c5nc(C)n(C(C)C)c5c4)n3)nc2)CC1 + CCn1c(-c2cc(N3CCN(C)CC3)cnc2C(C)OC)c2c3cc(ccc31)-c1csc(n1)CC(NC(=O)C1CC1C)C(=O)N1CCCC(N1)C(=O)OCC(C)(C)C2
IC50 (second compound 0.000949 µM): < 3.16 nM | IC50 (second compound 0.003 µM): < 3.16 nM | IC50 (second compound 0.00949 µM): < 3.16 nM | IC50 (second compound 0.03 µM): < 3.16 nM | IC50 (second compound 0.0949 µM): < 3.16 nM | IC50 (second compound 0.3 µM): < 3.16 nM | viability, T/C (second compound 0.000949 µM, first compound 0.00316 µM): 37.3% | viability, T/C (second compound 0.000949 µM, first compound 0.01 µM): 32.9% | viability, T/C [1]: 18.3% | viability, T/C [2]: 20.1% | viability, T/C [3]: 17.9% | viability, T/C [4]: 12.9% | viability, T/C (second compound 0.003 µM, first compound 0.00316 µM): 29.6% | viability, T/C (second compound 0.003 µM, first compound 0.01 µM): 22.1% | viability, T/C [5]: 16% | viability, T/C [6]: 16.8% | viability, T/C [7]: 14.3% | viability, T/C [8]: 12.3% | viability, T/C (second compound 0.00949 µM, first compound 0.00316 µM): 29% | viability, T/C (second compound 0.00949 µM, first compound 0.01 µM): 21.5% | viability, T/C [9]: 17.2% | viability, T/C [10]: 16.2% | viability, T/C [11]: 12.9% | viability, T/C [12]: 10.4% | viability, T/C (second compound 0.03 µM, first compound 0.00316 µM): 23.1% | viability, T/C (second compound 0.03 µM, first compound 0.01 µM): 17.9% | viability, T/C [13]: 18.9% | viability, T/C [14]: 14% | viability, T/C [15]: 9.41% | viability, T/C [16]: 14.5% | viability, T/C (second compound 0.0949 µM, first compound 0.00316 µM): 16.1% | viability, T/C (second compound 0.0949 µM, first compound 0.01 µM): 16% | viability, T/C [17]: 13.7% | viability, T/C [18]: 10.7% | viability, T/C [19]: 10.1% | viability, T/C [20]: 13.1% | viability, T/C (second compound 0.3 µM, first compound 0.00316 µM): 14.8% | viability, T/C (second compound 0.3 µM, first compound 0.01 µM): 16.5% | viability, T/C [21]: 12.8% | viability, T/C [22]: 10.4% | viability, T/C [23]: 10.6% | viability, T/C [24]: 12.6%
